# Test system: Interleukin-6 (IL-6)
# Test: Interleukin-6 (IL-6) assay: UV-stressed skin cells, IL-6 ELISA of media supernatant
# Format: cell-based
# Conditions: FIG. 2; active alone at 0.0001% by weight of the composition; skin cells (keratinocytes or fibroblasts), UV dose 61,500 Joules/m^2
# Protocol: Interleukin-6 (IL-6) Assay Interleukin-6 (IL-6) bioactivity in skin cells was measured. IL-6 is a cytokine and used as a biomarker for inflammation. Skin cells (keratinocytes or fibroblasts) were placed under UV stress to induce an IL-6 response in the presence of an active or blend of actives to determine the activity of that active or blend of actives in inhibiting an IL-6 response. Skin cells (keratinocytes or fibroblasts) were taken from culture, seeded in a 96-well plate at a density of 5000 cells per well in cell growth media with supplements and left to incubate for 24 hours at 37° C. Determination of cell number for the purpose of plating was performed in accordance with standard methods known in the art. After incubation, the cell growth media was replaced with 100 μl of PBS without calcium and magnesium and containing the relevant concentration of active(s) required. Controls include untreated irradiated and non-irradiated samples which require 100 μl pure PBS without calcium and magnesium or containing a maximum of 0.1%. Dimethyl sulfoxide (DMSO) was used where necessary to dissolve the active(s). Salicylic acid is the positive control for this assay. The cells were incubated with the actives for 30 minutes at 37° C. before being irradiated with a UV dose of 61,500 Joules/m^2. […]
smiles,measurement,value
CCCCCCCCCCCCCC[C@@H](O)[C@@H](O)[C@@H](N)CO.Cl [phytosphingosine hydrochloride],inhibited IL-6 activity,58%

# From US11730686B2, “Cosmetic skincare compositions” (THE BOOTS COMPANY PLC, priority 2017, dated 2023)
